Like-named read-outs stand apart in the source and are kept apart here.
Columns and labels:
[1] = Pharmacokinetic study in SD rats after intragastric administration of pro-EGCG, plasma by UPLC-Qtof-MS; format: in vivo, Sprague Dawley (SD) rats
Protocol: Fourteen to 16-weeks old female Sprague Dawley (SD) rats at reproductive age and of approximately 250 g were grouped in different cages in an air-conditioned room (22 ± 2°C) with a 12-h controlled lighting cycle. The SD rats were fed with standard chow and given free access to water. They were acclimatized for 1 week before the experiment. The study was approved by the Animal Experimentation Ethics Committee of the Chinese University of Hong Kong and was performed according to institutional guidelines. For validation studies, the rats were fasted overnight and then anesthetized by inhaling isoflurane (Baxter, IL, United States) for 15 min. Blank blood samples, approximately 10 mL, were withdrawn by cardiac puncture after experiments and before sacrifice.
Venous blood drawn from the SD rats was stored in an EDTA tube in an […] ice bath for not more than 10 min and centrifuged at 1780 × g and […] for 10 min. Plasma was aliquoted in 50 μL, mixed with 6 µL formic acid, and either immediately processed or stored at -80°C.
The extraction procedure was modified from our previous study ([Chu et al., 2014]). A plasma aliquot was spiked with 2.5 µL of 100 μg/mL pro-EGCG internal standard and mixed with 300 µL of isopropanol and 3 µL of formic acid. After vortexing for 2 min and sonicating for 2 min, 1 mL of MTBE and 150 µL magnesium chloride 0.043% solution were added. The mixture was again vortexed for 2 min and sonicated for 2 min. After settling, the mixture was centrifuged at 2,624 × g and 4°C for 10 min. The supernatant was pipetted into a glass tube by a glass Pasteur pipette and avoided touching the protein layer. The remaining aqueous layer was re-extracted by isopropanol and MTBE as described above. The supernatant was mixed with the previous extract and purged to dryness by nitrogen. The dried residues were dissolved in 100 µL methanol, sonicated for 30 s, vortexed for 2 min, and centrifuged at 3,634 × g at 4°C for 15 min. The supernatant was transferred to an HPLC vial for LCMS analysis. Methanol can completely dissolve pro-EGCG and precipitate protein matrix from the residues.
Plasma extract was analyzed by Agilent 6,540 Liquid chromatography-electrospray ionization quadrupole-TOF Mass Spectrometer. The extract, 8 μL, was separated by Waters Cortex UPLC C18 1.6 µm × 2.1 × 150 mm column (Waters, Milford, MA). Mobile phase A was 0.1 mM ammonia solution/acetonitrile/methanol/formic acid [80:15:5:0.2 (v/v/v/v)] and mobile phase B acetonitrile/methanol/0.1 mM ammonia solution/formic acid [92.5:5:2.5:0.2 (v/v/v/v)]. The column temperature was 40°C and the flow rate was 0.4 mL/min. The binary elusion program: 20% B, 0–2 min; 20%–60% B, 2–10 min; 60%–100% B, 10–11 min; 100% B, 11–18 min; 100%–20% B, 18–19 min; 20% B, 19–24 min. Positive electrospray ionization was used with capillary voltage (VCap) at 4500V, nozzle voltage at 1000 V, the gas temperature at 300°C, drying gas at 8 L/min, nebulizer pressure at 40 psi, sheath gas temperature at 300°C, and sheath gas flow at 11 L/min. The acquisition range was 100–1,000 m/z. The exact mass method was used for quantification at the range of 812.2043 ± 0.06 m/z for pro-EGCG ammonium adduct [M + NH4]^+ and 803.2039 ± 0.06 m/z for internal standard pro-EGCG-1–13C8 hydrogen adduct [M + H]^+. The mass was locked by continuous infusion of calibration standards with lock mass calibrated at 922.0 m/z.
For analysis of the metabolites, the predicted masses of pro-EGCG metabolites as calculated from de-acetylation, glucuronidation, sulphation, and methylation were scanned from the chromatogram of the first-hour plasma samples after intragastric administration of pro-EGCG. For a particular metabolite, the predicted target molecular mass of the metabolite was submitted for MS/MS analysis within ± 1 min around the retention time of the peak. The chromatography and mass spectrum conditions were the same as above. The collision energy was set for […] and the daughter ion scan ranged from 100–1,000 Da. […]

[2] = Stability of pro-EGCG in rat plasma (room temperature; esterase inhibitors; formic acid); format: in vitro ADME; conditions: for stability of pro-EGCG in plasma at room temperature: 50 μg/mL pro-EGCG spiked in rat plasma, 0-60 min
Protocol: The stability of pro-EGCG in plasma at room temperature was assessed by spiking 50.0 μg/mL pro-EGCG into three sets of 50 µL plasma samples. Each plasma sample was spiked with 5.0 μg/mL pro-EGCG internal standard at time points 0, 3, 5, 10, 20, 30, and 60 min before snap-frozen by liquid nitrogen. The samples were processed as described above and analyzed by UPLC‐Qtof-MS.
We also evaluated the stabilizing effect of different esterase inhibitors. The inhibitors, 4-(2-aminoethyl-)benzenesulponylfluoride HCL (penfabloc), bis-nitophenyl phosphate (BNPP), N-α-tosyl-L-lysine chloromethylketone HCL (TLCK), and dichlorvos, at plasma level of 30 mM; a mixture of sodium fluoride–potassium oxalate (NaF-KO) at plasma level of 10.0 mg/mL and 8.0 mg/mL; and 6 µL formic acid in 50 µL fresh rat plasma sample were used. Subsequently, pro-EGCG was spiked into the blank rat plasma at 5.0 μg/mL in an ice bath for 10 min. An internal standard, 5.0 μg/mL, was added to the plasma samples and snap-frozen by liquid nitrogen at the 10th minute. Three sets of samples were tested. The samples were processed as above and analyzed by UPLC‐Qtof-MS.
The stability of pro-EGCG in plasma with formic acid was assessed by mixing 6 µL of formic acid with 5.0 μg/mL pro-EGCG in 50 µL plasma and stored in an ice bath. Each three plasma samples were spiked with 5.0 μg/mL pro-EGCG internal standard and snap-frozen by liquid nitrogen at time points 0, 10, 15, 20, 30, 45, and 60 min. The samples were analyzed as described. Stability (%)=calculated concentration of pro−EGCG under different treatment /actual spiked concentration×100%

[3] = Stability of pro-EGCG in processed plasma extracts on storage; format: physicochemical; conditions: 5.0 μg/mL pro-EGCG of processed samples stored at 4°C for 7 days and 4 weeks at -20°C
Protocol: Three processed plasma samples extracted at 5.0 μg/mL were stored at 4°C for a week. They were tested at t = 0 and 7 days. This duration was selected to ensure the test period is sufficient to cover a batch of samples for analysis in the auto-sampler ([Brodie and Hill, 2002]; [Department of Medical Sciences Ministry of Public Health, 2022]). […] This test period covered common the maximum storage period pending for batches of analysis.

[4] = tested on: proteasome activity of breast cancer cells, MDA-MB231; parameters: method as in Landis-Piwowar et al., 2007; conditions: animal models, relative to EGCG, ref Landis-Piwowar et al., 2007; cited from earlier work
[5] = tested on: induced prostate cancer; parameters: method as in Lee et al., 2008; conditions: nude mice with induced prostate cancer; relative to EGCG; ref Lee et al., 2008; cited from earlier work
[6] = tested on: induced skin tumors; parameters: method as in Chiou et al., 2013; conditions: mice with induced skin tumors; ref Chiou et al., 2013; cited from earlier work
[7] = tested on: human lung cancer H460 cells; parameters: method as in Heyza et al., 2018; conditions: compared with EGCG treatment, ref Heyza et al., 2018; cited from earlier work
[8] = tested on: plasma vascular endothelial growth factor (VEGF); parameters: method as in Wang et al., 2013; conditions: mouse model with induced endometriotic lesions; ref Wang et al., 2013; cited from earlier work
[9] = parameters: method as in Lambert et al., 2006; conditions: intragastric administration, CF-1 mice; ref Lambert et al., 2006; cited from earlier work
[10] = female, Sprague-Dawley, rat, po, SD rats (n = 3), plasma, within 24 h after intragastric 50 mg/kg pro-EGCG, Mean ± SE
[11] = female, Sprague-Dawley, rat, plasma, po, 50 mg/kg, proposed metabolite in rat plasma after intragastric 50 mg/kg pro-EGCG, no standards, not confirmed, read-out: Tmax of pro-EGCG metabolite

Structure (SMILES): CC(=O)Oc1cc(OC(C)=O)c2c(c1)O[C@H](c1cc(OC(C)=O)c(OC(C)=O)c(OC(C)=O)c1)[C@H](OC(=O)c1cc(OC(C)=O)c(OC(C)=O)c(OC(C)=O)c1)C2 [pro-EGCG, (-)-Epigallocatechin-gallate octaacetate]
- Cmax ([1]; female, Sprague-Dawley, oral, 50 mg/kg, non-compartmental analysis, rat plasma (n = 3) over 24 h): 67 ± 0.04 ng/mL
- Tmax ([1]; female, Sprague-Dawley, rat, plasma, po, 50 mg/kg, SD rats (n = 3), plasma, within 24 h after intragastric 50 mg/kg pro-EGCG, Mean ± SE, read-out: Tmax): 1.33 ± 0.33 h
- Tmax ([1]; female, Sprague-Dawley, rat, plasma, po, 50 mg/kg, oral administration, SD rats, 50 mg/kg pro-EGCG, read-out: time-of-maximum-concentration (Tmax)): 1.33 h
- AUC ([1]; female, Sprague-Dawley, rat, plasma, oral administration, SD rats, 50 mg/kg pro-EGCG, read-out: area-under-curve (AUC)): 200 ± 50 ng·h/mL
- Cmax [1, 10]: 67 ± 40 ng/mL
- MRT [1, 10]: 12.9 ± 6.4 h
- k el ([1]; female, Sprague-Dawley, rat, po, SD rats (n = 3), plasma, within 24 h after intragastric 50 mg/kg pro-EGCG, Mean ± SE, read-out: Lambda Z (converted)): 5.56e-05 s⁻¹
- elimination-rate ([1]; oral administration, SD rats, 50 mg/kg pro-EGCG): 0.20 ± 0.11 h⁻¹
- stability of pro-EGCG in plasma at room temperature [2]: rapidly degraded
- stability of pro-EGCG in plasma at room temperature ([2]; listed as Pro-EGCG): unstable
- pro-EGCG remaining ([2]; formic acid treated plasma (6 µL in 50 µL), 5.0 μg/mL, 10 min in an ice bath, Mean ± SD, n = 3): 103 ± 3.6%
- pro-EGCG left ([2]; other esterase inhibitors treated plasma (TLCK, BNPP, dichlorvos, pefabloc 30 mM; NaF-KO), 5.0 μg/mL, 10 min in an ice bath): less than 22%
- Pro-EGCG remained [3]: above 95%
- potency in inhibiting proteasome activity compared to the equivalent amount of EGCG [4]: more than two-fold
- tumor volume smaller after pro-EGCG treatment than EGCG treatment [5]: 40.1%
- average number of tumors per mouse [6]: three folds lower
- tumor incidences [6]: three folds lower
- half-maximal inhibitory concentration (IC50) of clonogenicity [7]: slightly lower
- plasma VEGF concentration relative to the concentration treated by EGCG [8]: two-thirds
- bioavailability of EGCG compared with EGCG administered at equimolar doses [9]: higher

Structure (SMILES): CC(=O)Oc1cc([C@H]2Oc3cc(O)cc(O)c3C[C@H]2OC(=O)c2cc(O)c(O)c(O)c2)cc(O)c1OC(C)=O [EGCG-2Ac, (-)-epigallocatechin-gallate (EGCG) diacetates]
- Tmax [1, 11]: ~1 h

Structure (SMILES): CC(=O)Oc1cc([C@H]2Oc3cc(O)cc(O)c3C[C@H]2OC(=O)c2cc(O)c(O)c(O)c2)cc(OC(C)=O)c1OC(C)=O [EGCG-3Ac, EGCG triacetates]
- Tmax [1, 11]: ~5 h
- degradation of EGCG-3Ac (production rate of EGCG-2Ac) ([1]; rat plasma profile after intragastric 50 mg/kg pro-EGCG, peak ratio to internal standard): about 1.25 × 10^−5 EGCG-3Ac/IS/hr

From paper PMC9592989, “Determination of (-)-epigallocatechin-3-gallate octaacetate and its metabolites in plasma of rats for pharmacokinetic study by ultra-performance-liquid-chromatography coupled to quadrupole-time-of-flight-mass-spectrometry” (Frontiers in Pharmacology, 2022)
